Reference: the supplement of paper PMC10878532, “Sperm Toolbox—A selection of small molecules to study human spermatozoa” (PLOS ONE, 2024)

Legend:
[1] = tested on: HeLa; assay: HeLa toxicity: nuclei-count effect normalised to DMSO (DMSO = 0); higher = more features changed / larger toxic effect; conditions: incubation time: 24h incubation
[2] = tested on: HepG2; assay: HepG2 toxicity (resazurin), effect normalised to DMSO (DMSO = 0); higher = more features changed / larger toxic effect; conditions: incubation time: 70h incubation
[3] = tested on: human spermatozoa; assay: viability fold change, 1 - (PI-positive fraction / DMSO median); higher = more of the measured sperm population than DMSO, for viability, fewer PI-positive (dead) cells than DMSO; conditions: incubation time: 3h, non-capacitating
[4] = tested on: HeLa; assay: Cell Painting percent induction (share of features beyond 2 z-scores vs DMSO); higher = more features changed / larger toxic effect; extreme values may be limits of the assay; conditions: incubation time: 24h incubation
[5] = tested on: human spermatozoa; assay: total motile sperm, percent change vs DMSO (non-capacitating); higher = more of the measured sperm population than DMSO, for viability, fewer PI-positive (dead) cells than DMSO
[6] = tested on: human spermatozoa; assay: change in acrosome-reacted (PNA+) sperm vs DMSO, no agonist (capacitating); higher = more of the measured sperm population than DMSO, for viability, fewer PI-positive (dead) cells than DMSO; conditions: incubation time: 3h
[7] = tested on: human spermatozoa; assay: acrosome-reacted (PNA+) sperm after agonist cocktail, percent change vs DMSO (capacitating); higher = more of the measured sperm population than DMSO, for viability, fewer PI-positive (dead) cells than DMSO; conditions: incubation time: 3h, capacitating + agonist cocktail 1h
[8] = tested on: human spermatozoa; assay: hyperactivated motile sperm, percent change vs DMSO (capacitating); higher = more of the measured sperm population than DMSO, for viability, fewer PI-positive (dead) cells than DMSO; conditions: incubation time: 30min incubation
[9] = tested on: human spermatozoa; assay: progressively motile sperm, percent change vs DMSO (non-capacitating); higher = more of the measured sperm population than DMSO, for viability, fewer PI-positive (dead) cells than DMSO; extreme values may be limits of the assay
[10] = tested on: human spermatozoa; assay: progressively motile sperm, percent change vs DMSO (capacitating); higher = more of the measured sperm population than DMSO, for viability, fewer PI-positive (dead) cells than DMSO; conditions: incubation time: 30min incubation
[11] = incubation time: 10min incubation, 9.99 µM
[12] = incubation time: 10min incubation, 29.9 µM
[13] = incubation time: 3h incubation, 9.99 µM
[14] = incubation time: 3h incubation, 29.9 µM
[15] = incubation time: 6h incubation, 9.99 µM
[16] = incubation time: 6h incubation, 29.9 µM
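Throughout, for progressively motile sperm, percent change vs DMSO (non-capacitating): pooled live human sperm from at least 3 donors, tracked by automated microscopy in 0.5 s time-lapse movies, compounds at 10 and 30 µM, versus median of 16 DMSO wells per plate.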
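Throughout, for total motile sperm, percent change vs DMSO (non-capacitating): sperm pooled from at least 3 donors, tracked in 0.5 s time-lapse movies by automated microscopy after 10 min, 3 h or 6 h with compound at 10 or 30 µM.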

SMILES | HeLa toxicity: nuclei-count effect normalised ([1]; 9.99 µM) [%] | HeLa toxicity: nuclei-count effect normalised ([1]; 29.9 µM) [%] | HepG2 toxicity ([2]; 10 µM) [%] | HepG2 toxicity ([2]; 30 µM) [%] | viability fold change ([3]; 9.99 µM) | viability fold change ([3]; 29.9 µM) | Cell Painting percent induction ([4]; 9.99 µM) [%] | Cell Painting percent induction ([4]; 29.9 µM) [%] | total motile sperm [5, 11] [%] | total motile sperm [5, 12] [%] | total motile sperm [5, 13] [%] | total motile sperm [5, 14] [%] | total motile sperm [5, 15] [%] | total motile sperm [5, 16] [%] | change in acrosome-reacted ([6]; 9.99 µM) [%] | change in acrosome-reacted ([6]; 29.9 µM) [%] | acrosome-reacted ([7]; 9.99 µM) [%] | acrosome-reacted ([7]; 29.9 µM) [%] | hyperactivated motile sperm ([8]; 9.99 µM) [%] | hyperactivated motile sperm ([8]; 29.9 µM) [%] | progressively motile sperm [9, 11] [%] | progressively motile sperm [9, 12] [%] | progressively motile sperm [9, 13] [%] | progressively motile sperm [9, 14] [%] | progressively motile sperm [9, 15] [%] | progressively motile sperm [9, 16] [%] | progressively motile sperm ([10]; 9.99 µM) [%] | progressively motile sperm ([10]; 29.9 µM) [%]
Oc1c(Cl)cc(Cl)c(Cl)c1Cc1c(O)c(Cl)cc(Cl)c1Cl [Hexachlorophene] | 14 | 33.9 | 56.3 | 74.5 | -0.213 | 0.344 | 0 | 0.18 | -1.87 | -5.83 | -1.02 | -8.13 | -1.96 | -7.29 | 0.634 | 0.899 | -9.07 | -13.3 | -24.4 | -58.1 | -23.5 | -48.4 | -39.7 | -63.9 | -37.2 | -61.3 | -5.64 | -8.81
CC(C)Cn1c(=O)n(C)c(=O)c2[nH]cnc21 [IBMX] | 3.07 | -2.27 | 7.96 | -0.365 | -0.424 | -0.627 | 0 | 0.036 | -1.18 | 1.45 | -5.33 | -3.42 | -1.15 | -4.45 | 0.651 | 1.04 | 36.8 | 69.3 | 67.7 | 147 | 18.9 | 35.7 | 40.5 | 53.9 | 53.1 | 61.2 | 12.9 | 19.2
CC(C)Cn1cnc2c(N)nc3ccccc3c21 [Imiquimod] | 6.28 | 5.01 | 10.2 | -1.53 | -0.324 | -0.489 | 0.612 | 0 | -0.548 | 1.37 | -4.33 | -4.6 | -4.54 | -9.83 | 1.03 | 1.32 | 34.9 | 56.5 | 65.2 | 131 | 24.4 | 32.7 | 49.3 | 51.2 | 58.8 | 51.3 | 7.22 | 11.8
Cc1sc2c(c1C)C(c1ccc(Cl)cc1)=N[C@@H](CC(=O)OC(C)(C)C)c1nnc(C)n1-2 [JQ1] | 16.3 | 31.3 | 56.3 | – | -0.127 | -0.0779 | 0.684 | 1.87 | 4.25 | 1.65 | -3.02 | 0.304 | -0.955 | -3.78 | 0.641 | 1.24 | 17.2 | 40.2 | 18.5 | -14.4 | 13.6 | 21.5 | 27.4 | 52.8 | 48 | 55.5 | 15.8 | 27.5
COc1cc(SC)ccc1C(=O)N1CCC(Cc2ccccc2)CC1 [JX 401] | 4.01 | 2.67 | 9.25 | -2.23 | -1.82 | -1.65 | 0.036 | 0 | 3.2 | -0.475 | 1.22 | -0.09 | 0.862 | -0.188 | 0.294 | 1.59 | 15 | 16.2 | 19.2 | 24.9 | 2.94 | -4.03 | 10.9 | 7.53 | 13.8 | 14.6 | 4.17 | 3.66
